{
  "source": "patent US11958977B2",
  "about": "“Fluorescently labeled polysaccharide, preparation method therefor, and use thereof” (SUZHOU BAIYUAN GENT CO., LTD., priority 2018, dated 2024)",
  "origin": "cited, not measured here",
  "settings": "Solvent: 0.1M H2SO4",
  "note": "Structures can show the parent of a compound that is named as a salt.",
  "data": [
    {"compound": "C=C[C@H]1C[N@@]2CC[C@H]1C[C@H]2[C@H](O)c1ccnc2ccc(OC)cc12", "note": "[quinine sulfate]", "values": [
      {"measurement": "Quantum yield of the reference compound", "result": 0.56}
    ]}
  ]
}
